Patent US5047397A, “Linear analogs of atrial natriuretic peptides” (California Biotechnology Inc., priority 1988, dated 1991)
Values belong to the compound of their own block, whether it stands above or below them. Where a SMILES comes first, the peptide text is derived from it. Bridges are numbered along the chain shown (N, C = ends). Where no end group is shown, it is not given here. The star is where a group is joined. ξ: configuration not given here. Acetyl(2-naphthyloxy) = O=C(COc1ccc2ccccc2c1)*; X10 = O=C(CNc1ccc(C(=O)*)cc1)c1ccc2ccccc2c1; ξNaproxenoyl = COc1ccc2cc(C(C)C(=O)*)ccc2c1; Inp = O=C(O)C1CCNCC1; NHiBu = CC(C)CN*

Legend:
[1] = biological target: T1, specific ANP receptor sites on BASM or BAE cells (Bos taurus, UniProt P10730); assay: Competitive displacement receptor binding of (125I)-rANP(126-150) on cultured cells; parameters: species or system bovine; conditions: for Ki(app): concentration of unlabeled peptide displacing 50% of maximal binding of 0.5 nM (125I)-rANP(126-150), BASM or BAE cells; for prevention of (125I)-rANP(126-150) binding to BASM cell-associated receptors (FIG. 2): increasing concentrations of unlabeled peptide, BASM cells
T1 construct: specific receptor sites on BASM or BAE cells; endogenous in cells; host or cells: cultured BASM and BAE cells
T1 sequence (P10730 42-537): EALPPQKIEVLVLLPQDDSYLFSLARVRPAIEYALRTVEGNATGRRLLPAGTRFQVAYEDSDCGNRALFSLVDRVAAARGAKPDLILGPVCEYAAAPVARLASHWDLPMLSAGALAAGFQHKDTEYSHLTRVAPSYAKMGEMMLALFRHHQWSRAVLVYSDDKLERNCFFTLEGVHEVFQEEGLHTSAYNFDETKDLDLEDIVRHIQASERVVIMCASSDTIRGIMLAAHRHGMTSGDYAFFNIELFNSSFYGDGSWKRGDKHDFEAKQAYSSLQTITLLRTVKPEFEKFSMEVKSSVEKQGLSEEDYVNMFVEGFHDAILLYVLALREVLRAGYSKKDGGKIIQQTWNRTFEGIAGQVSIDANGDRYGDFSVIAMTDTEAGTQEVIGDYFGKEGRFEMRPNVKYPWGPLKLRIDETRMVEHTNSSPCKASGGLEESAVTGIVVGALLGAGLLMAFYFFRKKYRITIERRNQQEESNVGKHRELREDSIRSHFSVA
Excerpt: Analogous "competitive displacement" receptor binding assays are considered commonplace in the art for examining specific ligand-receptor interactions.
Assuming these ANP analogs act at one or more ANP receptor sites, then increased receptor affinity should reflect increased biological potency.

anesthetized rats = assay: Diuresis in anesthetized rats; assay type: in vivo, rat; conditions: for urine flow rate (urine volume), diuretic response: versus baseline, FIG. 3
Experimental: In one set of examples, cannulae were placed in the left and right ureters and femoral vein of anesthetized rats and urine was collected from the ureters. Analog peptides were administered via the femoral vein. Prior to infusing the analog peptides, saline was infused for 30 minutes, urine was collected for 6 five-minute baseline periods and urine volume was determined gravimetrically. Following these baseline collection periods, various analog peptides were infused for 30 or 60 minutes and urine volume was measured in five-minute periods during infusion and for 60 minutes following infusion (at which time rats were returned to saline). Data was examined by averaging urine flow rates for six five-minute baseline control periods immediately preceding infusion, and comparing values during and after administration of peptides with the "baseline" control values. Responses to peptides are thus evaluated and plotted as the percent of baseline control responses. Specific examples are shown in FIGS. 3A-H. The error bars at the beginning of the graphs represent baseline values +standard deviations. Responses to peptides that are substantially above baseline ±SD can thus be interpreted as being statistically significant increases.

[2] = tested on: isolated perfused rat kidney; assay: Natriuresis and diuresis in the isolated perfused rat kidney; conditions: N=4
Excerpt: The results are in Table 2C.

[3] = tested on: cortical-associated receptor sites of the kidney; assay: Competition for specific (125I)-rANP(123-150) binding in the kidney; parameters: species or system rat; conditions: competitor 10^-7 M, tracer 4 × 10^-12 M, n=3
[4] = rANP(123-150) 10^-8 M in presence of AP57 10^-7 M
[5] = rANP(123-150) 10^-8 M, mean ± SE
[6] = rANP(123-150) 10^-9 M in presence of AP57 10^-7 M
[7] = rANP(123-150) 10^-9 M, mean ± SE
[8] = rANP(123-150) 10^-10 M in presence of AP57 10^-7 M
[9] = rANP(123-150) 10^-10 M, mean ± SE
[10] = rANP(123-150) 10^-11 M in presence of AP57 10^-7 M
[11] = rANP(123-150) 10^-11 M, mean ± SE

Compound: CC[C@H](C)[C@@H]1NC(=O)[C@H](CCCNC(=N)N)NC(=O)[C@H](CC(=O)O)NC(=O)[C@H]([C@@H](C)CC)NC(=O)[C@H](CCCNC(=N)N)NC(=O)[C@@H](NC(=O)[C@H](CO)NC(=O)[C@H](CO)NC(=O)[C@@H](N)CCCNC(=N)N)CSSC[C@@H](C(=O)N[C@@H](CC(N)=O)C(=O)N[C@@H](CO)C(=O)N[C@@H](Cc2ccccc2)C(=O)N[C@@H](CCCNC(=N)N)C(=O)N[C@@H](Cc2ccc(O)cc2)C(=O)O)NC(=O)CNC(=O)[C@H](CC(C)C)NC(=O)CNC(=O)[C@H](CO)NC(=O)[C@H](CCC(N)=O)NC(=O)[C@H](C)NC(=O)CNC1=O [AP25, R--S--S--C--R--I--D--R--I--G--A--Q--S--G--L--G--C--N--S--F--R--Y] (H-RSSCRIDRIGAQSGLGCNSFRY-OH; disulfide 4-17)
Ki(app) [1]: 8.62 nM
prevention of (125I)-rANP(126-150) binding to BASM cell-associated receptors (FIG. 2) [1]: effectively prevent
urine flow rate (urine volume), diuretic response (anesthetized rats; infused at 5 mcg/min via femoral vein): significantly increased

Compound: CC[C@H](C)[C@@H]1NC(=O)[C@H](CCCNC(=N)N)NC(=O)[C@H](CC(=O)O)NC(=O)[C@H]([C@@H](C)CC)NC(=O)[C@H](CCCNC(=N)N)NC(=O)CNC(=O)CNC(=O)[C@H](Cc2ccccc2)NC(=O)[C@@H](N)CSSC[C@@H](C(N)=O)NC(=O)[C@H](C)NC(=O)CNC1=O [AP37, C-F-G-G-R-I-D-R-I-G-A-C-NH2] (H-CFGGRIDRIGAC-NH2; disulfide 1-12)
Ki ([1]; Table 2A, unit not given, in nM): 13.40
prevention of (125I)-rANP(126-150) binding to BASM cell-associated receptors (FIG. 2) [1]: effectively prevent
urine flow rate (urine volume), diuretic response (anesthetized rats; infused at 10 mcg/min via femoral vein): significantly increased

Compound: CC[C@H](C)[C@@H]1NC(=O)[C@H](CCCNC(=N)N)NC(=O)[C@H](CC(=O)O)NC(=O)[C@H]([C@@H](C)CC)NC(=O)[C@@H](NC(=O)[C@H](CO)NC(=O)[C@H](CO)NC(=O)[C@@H](N)CCCNC(=N)N)CSSC[C@@H](C(=O)N[C@@H](CC(N)=O)C(=O)N[C@@H](CO)C(=O)N[C@@H](Cc2ccccc2)C(=O)N[C@@H](CCCNC(=N)N)C(=O)N[C@@H](Cc2ccc(O)cc2)C(=O)O)NC(=O)CNC(=O)[C@H](CC(C)C)NC(=O)CNC(=O)[C@H](CO)NC(=O)[C@H](CCC(N)=O)NC(=O)[C@H](C)NC(=O)CNC1=O [AP54, R--S--S--C--I--D--R--I--G--A--Q--S--G--L--G--C--N--S--F--R--Y] (H-RSSCIDRIGAQSGLGCNSFRY-OH; disulfide 4-16)
receptor binding / activity as judged by Ki, in words [1]: does not bind to the receptor
Ki(app) [1]: > 200 nM
in vivo diuretic/natriuretic activity in rats, in words (anesthetized rats; dose not stated): appears inactive in vivo

Compound: CC[C@H](C)[C@H](NC(=O)[C@H](CCCNC(=N)N)NC(=O)[C@H](CC(=O)O)NC(=O)[C@@H](NC(=O)[C@H](CCCNC(=N)N)NC(=O)CNC(=O)CNC(=O)C(C)c1ccc2cc(OC)ccc2c1)[C@@H](C)CC)C(=O)NCC(=O)N[C@@H](C)C(N)=O (stereo partly drawn) [AP528, 2(2'-(6'-MeONAP))--G--G--R--I--D--R--I--G--A--NH2] (ξNaproxenoyl-GGRIDRIGA-NH2)
Ki(app) [1]: 22.5 nM

Compound: rANP(123-150): sequence of ANP(126-150) which includes 3 additional upstream amino acids of the naturally occurring peptide (SLRRSSCFGGRIDRIGAQSGLGCNSFRY; not fully specified; ends and bridges not checked; UniProt P01161 123-150, looked up, fragment)
FENa (fractional sodium excretion) [2, 4]: 4.77 ± 1.22%
FF (filtration fraction) [2, 4]: 2.30 ± 0.47%
GFR (glomerular filtration rate) [2, 4]: 0.84 ± 0.13 mL/min
RVR (renal vascular resistance) [2, 4]: 2.63 ± 0.33 mmHg/ml/min
UNa V (urinary sodium excretion rate) [2, 4]: 6.47 ± 2.29 uEq/min
V (urine flow rate) [2, 4]: 132 ± 33 µL/min
FENa (fractional sodium excretion) [2, 5]: 4.12 ± 0.94%
FF (filtration fraction) [2, 5]: 2.23 ± 0.44%
GFR (glomerular filtration rate) [2, 5]: 0.80 ± 0.08 mL/min
RVR (renal vascular resistance) [2, 5]: 2.66 ± 0.32 mmHg/ml/min
UNa V (urinary sodium excretion rate) [2, 5]: 4.78 ± 1.15 uEq/min
V (urine flow rate) [2, 5]: 96.6 ± 24.0 µL/min
FENa (fractional sodium excretion) [2, 6]: 4.08 ± 0.72%
FF (filtration fraction) [2, 6]: 2.81 ± 0.40%
GFR (glomerular filtration rate) [2, 6]: 0.99 ± 0.07 mL/min
RVR (renal vascular resistance) [2, 6]: 2.79 ± 0.34 mmHg/ml/min
UNa V (urinary sodium excretion rate) [2, 6]: 6.03 ± 1.37 uEq/min
V (urine flow rate) [2, 6]: 139 ± 14 µL/min
FENa (fractional sodium excretion) [2, 7]: 2.78 ± 0.89%
FF (filtration fraction) [2, 7]: 2.30 ± 0.41%
GFR (glomerular filtration rate) [2, 7]: 0.82 ± 0.07 mL/min
RVR (renal vascular resistance) [2, 7]: 2.64 ± 0.35 mmHg/ml/min
UNa V (urinary sodium excretion rate) [2, 7]: 3.22 ± 0.92 uEq/min
V (urine flow rate) [2, 7]: 74.0 ± 14.8 µL/min
FENa (fractional sodium excretion) [2, 8]: 1.33 ± 0.20%
FF (filtration fraction) [2, 8]: 2.65 ± 0.20%
GFR (glomerular filtration rate) [2, 8]: 0.93 ± 0.04 mL/min
RVR (renal vascular resistance) [2, 8]: 2.80 ± 0.31 mmHg/ml/min
UNa V (urinary sodium excretion rate) [2, 8]: 1.76 ± 0.25 uEq/min
V (urine flow rate) [2, 8]: 70.6 ± 4.2 µL/min
FENa (fractional sodium excretion) [2, 9]: 1.21 ± 0.44%
FF (filtration fraction) [2, 9]: 1.76 ± 0.29%
GFR (glomerular filtration rate) [2, 9]: 0.66 ± 0.07 mL/min
RVR (renal vascular resistance) [2, 9]: 2.51 ± 0.26 mmHg/ml/min
UNa V (urinary sodium excretion rate) [2, 9]: 1.13 ± 0.43 uEq/min
V (urine flow rate) [2, 9]: 35.5 ± 5.7 µL/min
FENa (fractional sodium excretion) [2, 10]: 0.41 ± 0.11%
FF (filtration fraction) [2, 10]: 2.04 ± 0.15%
GFR (glomerular filtration rate) [2, 10]: 0.80 ± 0.08 mL/min
RVR (renal vascular resistance) [2, 10]: 2.50 ± 0.15 mmHg/ml/min
UNa V (urinary sodium excretion rate) [2, 10]: 0.45 ± 0.10 uEq/min
V (urine flow rate) [2, 10]: 31.0 ± 3.7 µL/min
FENa (fractional sodium excretion) [2, 11]: 0.72 ± 0.19%
FF (filtration fraction) [2, 11]: 1.33 ± 0.20%
GFR (glomerular filtration rate) [2, 11]: 0.53 ± 0.04 mL/min
RVR (renal vascular resistance) [2, 11]: 2.36 ± 0.20 mmHg/ml/min
UNa V (urinary sodium excretion rate) [2, 11]: 0.53 ± 0.14 uEq/min
V (urine flow rate) [2, 11]: 21.8 ± 1.7 µL/min
RATIO OF BOUND/FREE (125I)-rANP(123-150), Whole Kidney ([3]; tracer alone 122 ± 46): 0.63 ± 0.27
RATIO OF BOUND/FREE (125I)-rANP(123-150), Outer Cortex ([3]; tracer alone 176 ± 23): 0.77 ± 0.30

Now from value to compound:

Ki(app) [1]: 120.0 nM
Compound: CC[C@H](C)[C@H](NC(=O)[C@H](CCCNC(=N)N)NC(=O)CNC(=O)CNC(=O)COc1ccc2ccccc2c1)C(=O)N[C@@H](CC(=O)O)C(=O)N[C@@H](CCCNC(=N)N)C(=O)NCC(C)C [AP509] ({Acetyl(2-naphthyloxy)}-GGRIDR-NHiBu)

Ki(app) [1]: 9.1 nM
Compound: CC[C@H](C)[C@H](NC(=O)[C@H](CCCNC(=N)N)NC(=O)[C@H](CC(=O)O)NC(=O)[C@@H](NC(=O)[C@H](CCCNC(=N)N)NC(=O)C1CCN(C(=O)COc2ccc3ccccc3c2)CC1)[C@@H](C)CC)C(N)=O [AP539] ({Acetyl(2-naphthyloxy)-Inp}-RIDRI-NH2)

Ki(app) [1]: 13.1 nM
Compound: CC[C@H](C)[C@H](NC(=O)[C@H](CCCNC(=N)N)NC(=O)[C@H](CC(=O)O)NC(=O)[C@@H](NC(=O)[C@H](CCCNC(=N)N)NC(=O)c1ccc(NCC(=O)c2ccc3ccccc3c2)cc1)[C@@H](C)CC)C(N)=O [AP794] (X10-RIDRI-NH2)
